Read-outs that look alike come from different tables or passages of the source.
Assays:
[1] = molecular target: T1, purified murine COX-2 (Mus musculus, UniProt Q05769); assay: Inhibition of mCOX-2 dependent oxygenation of 2-AG and AA by profens in vitro; format: biochemical; set-up: made in house; host or cells: insect cells
T1 sequence (Q05769 18-604): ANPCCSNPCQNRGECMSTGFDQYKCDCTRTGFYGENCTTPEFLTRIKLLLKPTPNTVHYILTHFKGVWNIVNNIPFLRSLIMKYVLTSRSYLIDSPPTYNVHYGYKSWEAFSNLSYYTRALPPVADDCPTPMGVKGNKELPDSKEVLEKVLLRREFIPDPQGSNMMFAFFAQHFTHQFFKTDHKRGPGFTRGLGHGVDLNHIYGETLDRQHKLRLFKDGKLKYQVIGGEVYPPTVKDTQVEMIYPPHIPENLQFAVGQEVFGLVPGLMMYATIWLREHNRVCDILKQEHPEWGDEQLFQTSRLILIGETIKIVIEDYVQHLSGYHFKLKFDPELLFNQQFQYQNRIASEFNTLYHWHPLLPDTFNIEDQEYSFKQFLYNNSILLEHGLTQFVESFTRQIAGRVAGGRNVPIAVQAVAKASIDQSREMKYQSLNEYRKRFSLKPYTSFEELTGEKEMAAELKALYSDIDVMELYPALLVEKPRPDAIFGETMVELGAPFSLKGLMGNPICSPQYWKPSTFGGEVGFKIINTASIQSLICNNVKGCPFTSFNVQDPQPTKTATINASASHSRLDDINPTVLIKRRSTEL
Method: Desired concentrations of inhibitor in DMSO or blank (DMSO) were incubated with mCOX-2 (40 nM) for 3 minutes in 100 mM Tris-HCl with 0.5 mM phenol, pH 8.0 at 37° C. After pre-incubation of enzyme and inhibitor, 5 μM of AA or 2-AG was added at 37° C. Thirty seconds later, the reaction was quenched with 200 μL of ice-cold ethyl acetate containing 0.5% acetic acid (v/v) and 1 μM PGE2-d4 and PGE2-G-d5. The solution was then vortexed and the aqueous layer frozen. The organic layer was removed and evaporated to near-dryness under nitrogen. The samples were reconstituted in 1:1 MeOH:H2O and chromatographed using a LUNA® C18(2) column (50 2 mm, 3 μm; Phenomenex, Torrance, Calif., United States of America). […] Analyte peak areas were normalized to the appropriate internal standard to determine the amount of product formation, and inhibition was determined by normalization to a DMSO control.

[2] = molecular target: T1, purified murine COX-2; assay: Inhibition of mCOX-2-dependent oxygenation of 2-AG and AA by lumiracoxib and derivatives in vitro; format: biochemical; set-up: made in house; host or cells: insect cells; dose or concentration left out as unconfirmed
[3] = system: brain eCB, AA and PG levels; assay: Brain eCB, NAE, MAG, AA and PG levels after i.p. injection; format: in vivo, mice; conditions: 40 mg/kg
Method: 5-7 week old male ICR mice were used for all experiments with the exception of knockout animals (Harlan, Indianapolis, Ind., United States of America). Mice were housed 5 per […]. All behavioral tests were conducted during the light cycle between 0900 and 1700. KO and WT littermate controls for FAAH^(−/−) and COX-2^(−/−) mice were derived from heterozygote breeding pairs, bred and genotyped as described in Uddin et al., 2011. CB1^(−/−) mice were bred from homozygote breeding pairs and genotyped as described in Pan et al., 2008. Mice were group-housed on a 12:12 light-dark cycle (lights on at 06:00), with food and water available ad libitum. All animal studies were approved by the Vanderbilt Institutional Animal Care and Use Committee and conducted in accordance with the Guide for the Care and Use of Laboratory Animals of the United States National Institutes of Health.
Mice were sacrificed by cervical dislocation and decapitation. The brain, lungs, liver, stomach, small intestines, and kidneys were then rapidly removed and frozen on a metal block in dry ice. The tissue was then placed in a tube and stored at −80° C. until extraction, usually one day after harvesting. For PG and eCB analysis, lipid extraction from tissue was carried out as described in Patel et al., 2009.
Analytes were quantified using LC-MS/MS on a Quantum triple-quadrupole mass spectrometer in positive-ion mode using selected reaction monitoring. Detection of eicosanoids was performed as described in Kingsley & Marnett, 2007. For fatty acid analysis the mobile phases used were 80 μM AgOAc with 0.1% (v/v) acetic acid in H2O (solvent A) and 120 μM AgOAc with 0.1% (v/v) acetic acid in MeOH (solvent B). The analytes were eluted using a gradient from 20% A to 99% B over 5 minutes. The transitions used were m/z 300→282 for PEA, m/z 328→310 for SEA, m/z 434→416 for OEA, m/z 456→438 for AEA, m/z 464→446 for AEA-d8, m/z 331→257 for 2-PG, m/z 359→285 for 2-SG, m/z 463→389 for 2-OG, m/z 485→411 for 2-AG, m/z 493→419 for 2-AG-d8, m/z 519→409 for AA, and m/z 527→417 for AA-d8. Peak areas for the analytes were normalized to the appropriate internal standard and then normalized to tissue mass for in vivo samples.

[4] = chiral profens, at 10 μM inhibitor, AA 5 μM, read-out: % Inhibition AA
[5] = chiral profens, murine COX-2 40 nM, 3 min preincubation, 2-AG 5 μM, mean ± SD, read-out: IC50 (μM) 2-AG
[6] = achiral profens, at 10 μM inhibitor, AA 5 μM, read-out: AA % Inhibition
[7] = achiral profens, murine COX-2 40 nM, 3 min preincubation, 2-AG 5 μM, 37° C., 30 s, mean ± SD, read-out: 2-AG IC50
[8] = read-out: Maximum inhibition of 2-AG oxygenation, achiral profens, at 10 μM inhibitor, 2-AG 5 μM
[9] = 0.5 min, achiral profens, murine COX-2 40 nM, 3 min preincubation, 2-AG 5 μM, 37° C., 30 s, mean ± SD, read-out: 2-AG IC50
[10] = 15 min incubation, read-out: Maximum inhibition of AA oxygenation (converted)
[11] = inhibitor incubated with enzyme for 15 min before addition of substrate, read-out: AA IC50

CC(C(=O)O)c1cccc(Oc2ccccc2)c1 (racemic) [Compound 6d, fenoprofen, reference compound]
inhibition at 10 µM [1, 4]: 20% | IC50 [1, 5]: 0.9 µM

CC(C(=O)O)c1cccc(C(=O)c2ccccc2)c1 (racemic) [Compound 6e, ketoprofen, reference compound]
IC50 [1, 5]: 0.3 µM | inhibition at 10 µM ([1]; read-out: % Inhibition AA): 50%

C[C@H](C(=O)O)c1cccc(Oc2ccccc2)c1 [(S)-fenoprofen, reference compound]
% Inhibition AA ([1]; chiral profens, at 10 μM inhibitor, AA 5 μM): 30% | IC50 [1, 5]: 0.9 µM

C[C@H](C(=O)O)c1cccc(C(=O)c2ccccc2)c1 [(S)-ketoprofen, reference compound]
IC50 [1, 5]: 0.2 µM | inhibition at 10 µM ([1]; read-out: % Inhibition AA): 55%

COc1ccc2cc(CC(=O)O)ccc2c1 [Compound 3b, 2-(6-methoxynaphthalen-2-yl)acetic acid]
inhibition at 10 µM [1, 6]: 16% | IC50 [1, 7]: 1.4 µM

CC(C)Cc1ccc(CC(=O)O)cc1 [Compound 3c, 2-(4-isobutylphenyl)acetic acid]
inhibition at 10 µM [1, 6]: 14% | IC50 [1, 7]: 5.5 µM

O=C(O)Cc1cccc(Oc2ccccc2)c1 [Compound 3d, 2-(3-phenoxyphenyl)acetic acid]
inhibition at 10 µM [1, 6]: 24% | IC50 [1, 7]: 6.1 µM | inhibition at 10 µM [1, 8]: 68%

O=C(O)Cc1cccc(C(=O)c2ccccc2)c1 [Compound 3e, Desmethylketoprofen]
inhibition at 10 µM [1, 6]: 10% | IC50 [1, 7]: 0.5 µM

COc1ccc2cc(C(C)(C)C(=O)O)ccc2c1 [Compound 4b, 2-(6-methoxynaphthalen-2-yl)-2-methylpropanoic acid]
inhibition at 10 µM [1, 9]: < 50% | inhibition at 10 µM [1, 6]: 7% | inhibition at 10 µM [1, 8]: 12%

CC(C)Cc1ccc(C(C)(C)C(=O)O)cc1 [Compound 4c, 2-(4-isobutylphenyl)-2-methylpropanoic acid]
inhibition at 10 µM [1, 9]: < 50% | inhibition at 10 µM [1, 6]: 5% | inhibition at 10 µM [1, 8]: 5%

CC(C)(C(=O)O)c1cccc(Oc2ccccc2)c1 [Compound 4d, 2-methyl-2-(3-phenoxyphenyl)propanoic acid]
inhibition at 10 µM [1, 6]: 17% | IC50 [1, 7]: 7.3 µM | inhibition at 10 µM [1, 8]: 65%

CC(C)(C(=O)O)c1cccc(C(=O)c2ccccc2)c1 [Compound 4e, 2-(3-benzoylphenyl)-2-methylpropanoic acid]
inhibition at 10 µM [1, 6]: 32% | IC50 [1, 7]: 3 µM

COc1ccc2cc(C3(C(=O)O)CC3)ccc2c1 [Compound 5b, 1-(6-methoxynaphthalen-2-yl)cyclopropanecarboxylic acid]
inhibition at 10 µM [1, 6]: 6% | IC50 [1, 7]: 3.4 µM | inhibition at 10 µM [1, 8]: 77%

CC(C)Cc1ccc(C2(C(=O)O)CC2)cc1 [Compound 5c, 1-(4-isobutylphenyl)cyclopropanecarboxylic acid]
inhibition at 10 µM [1, 9]: < 50% | inhibition at 10 µM [1, 6]: 10% | inhibition at 10 µM [1, 8]: 45%

O=C(O)C1(c2cccc(Oc3ccccc3)c2)CC1 [Compound 5d, 1-(3-phenoxyphenol)cyclopropanecarboxylic acid]
inhibition at 10 µM [1, 6]: 15% | IC50 [1, 7]: 5 µM

O=C(c1ccccc1)c1cccc(C2(C(=O)O)CC2)c1 [Compound 5e, 1-(3-benzoylphenyl)cyclopropanecarboxylic acid]
inhibition at 10 µM [1, 6]: 10% | IC50 [1, 7]: 4.1 µM | inhibition at 10 µM [1, 8]: 75%

C[C@@H](C(=O)O)c1cccc(Oc2ccccc2)c1 [Compound 7d, (R)-Fenoprofen]
inhibition at 10 µM [1, 4]: 10% | inhibition at 10 µM ([1]; read-out: IC50 (μM) 2-AG): < 50% | inhibition at 10 µM ([1]; read-out: Maximum inhibition of 2-AG oxygenation, chiral profens, at 10 μM inhibitor, 2-AG 5 μM): 25%

C[C@@H](C(=O)O)c1cccc(C(=O)c2ccccc2)c1 [Compound 7e, (R)-ketoprofen]
IC50 [1, 5]: 7.3 µM | inhibition at 10 µM ([1]; read-out: % Inhibition AA): 20% | inhibition at 10 µM ([1]; read-out: Maximum inhibition of 2-AG oxygenation): 56%

Cc1ccc(Nc2c(F)cccc2Cl)c(CC(=O)O)c1 [Compound 101]
inhibition ([2]; read-out: AA IC50 (mM)): < 50%

Cc1ccc(Nc2ccccc2Cl)c(CC(=O)O)c1 [Compound 102]
inhibition [2, 10]: 0% | inhibition [2, 11]: < 50%

Cc1ccc(Nc2ccccc2F)c(CC(=O)O)c1 [Compound 103]
inhibition [2, 10]: 0% | inhibition [2, 11]: < 50%

Cc1ccc(Nc2ccccc2)c(CC(=O)O)c1 [Compound 104]
inhibition [2, 10]: 10% | inhibition [2, 11]: < 50%

Cc1ccc(Nc2c(Cl)cccc2Cl)c(CC(=O)O)c1 [Compound 105]
inhibition [2, 10]: 60%

Cc1ccc(Nc2c(F)cccc2F)c(CC(=O)O)c1 [Compound 106]
inhibition [2, 10]: 0% | inhibition [2, 11]: < 50%

Cc1ccc(Nc2c(C)cccc2F)c(CC(=O)O)c1 [Compound 107]
inhibition [2, 11]: < 50%

Cc1ccc(Nc2c(Cl)cc(Cl)cc2Cl)c(CC(=O)O)c1 [Compound 108]
inhibition [2, 10]: 32% | inhibition [2, 11]: < 50%

O=C(O)Cc1ccccc1Nc1c(F)cccc1Cl [Compound 109]
inhibition ([2]; read-out: AA IC50 (mM)): < 50%

O=C(O)Cc1ccccc1Nc1ccccc1Cl [Compound 110]
inhibition ([2]; read-out: AA IC50 (mM)): < 50%

O=C(O)Cc1ccccc1Nc1ccccc1F [Compound 111]
inhibition [2, 10]: 0% | inhibition [2, 11]: < 50%

O=C(O)Cc1ccccc1Nc1ccccc1 [Compound 112]
inhibition ([2]; read-out: AA IC50 (mM)): < 50%

O=C(O)Cc1ccccc1Nc1c(F)cccc1F [Compound 114]
inhibition ([2]; read-out: AA IC50 (mM)): < 50%

Cc1cccc(F)c1Nc1ccccc1CC(=O)O [Compound 115]
inhibition [2, 10]: 0% | inhibition [2, 11]: < 50%

O=C(O)Cc1ccccc1Nc1c(Cl)cc(Br)cc1Cl [Compound 116]
inhibition [2, 10]: 55%

O=C(Oc1ccc([N+](=O)[O-])cc1)N1CCC(C(O)(c2ccc3c(c2)OCO3)c2ccc3c(c2)OCO3)CC1 [JZL-184, reference compound]
Brain levels of 2-AG and 3 other MAG species [3]: increased

— US20150183737A1, “COMPOSITIONS AND METHODS FOR SUBSTRATE-SELECTIVE INHIBITION OF ENDOCANNABINOID OXYGENATION” (Vanderbilt University, priority 2012, published 2015)
